Results: PMC6514978, “Synthesis, Antibacterial Activities, Mode of Action and Acute Toxicity Studies of New Oxazolidinone-Fluoroquinolone Hybrids” (Molecules, 2019)
In brackets after ≈: the same amount, converted by molar mass. Values belong to the compound of their own block, whether it stands above or below them.

Columns and labels:
[1] = tested on: H. parasuis (34) clinical isolates; assay: Susceptibility of clinical isolates (MIC); type: cell-based, Haemophilus parasuis; settings: H. parasuis, 34 clinical isolates
Description: (§1) Susceptibility testing of oxazolidinone-fluoroquinolone hybrids against various bacteria was performed by the broth microdilution method as outlined by the Clinical and Laboratory Standards Institute (CLSI). Three types of media, including cation-adjusted Mueller Hinton broth, Haemophilus Test Medium and cation-adjusted Mueller Hinton broth that contained 3%–5% lysed horse blood, were used to culture the corresponding bacteria. […] A final inoculum of 5 × 10^5 CFU/mL was used and plates were read after incubation for 16–24 h at 35 °C. […] Standard quality control strains (ATCC) were included throughout. Each determination was repeated in triplicate.

[2] = tested on: S. epidermidis (10) clinical isolates; assay: Susceptibility of clinical isolates (MIC); type: cell-based, Staphylococcus epidermidis; settings: Staphylococcus epidermidis, S. epidermidis, 10 clinical isolates
Description: as §1

[3] = tested on: S. haemolyticus (32) clinical isolates; assay: Susceptibility of clinical isolates (MIC); type: cell-based, Staphylococcus haemolyticus; settings: Staphylococcus haemolyticus, S. haemolyticus, 32 clinical isolates
Description: as §1

[4] = tested on: E. faecalis (72) clinical isolates; assay: Susceptibility of clinical isolates (MIC); type: cell-based, Enterococcus faecalis; settings: E. faecalis, 72 clinical isolates
Description: as §1

[5] = tested on: MRSE; assay: MIC against drug-resistant strain; type: cell-based, S. epidermidis; settings: Staphylococcus epidermidis, read-out: MIC
Description: (§2) 6 standard strains and 3 clinical isolates were used to the preliminary evaluation of in vitro antibacterial activities of oxazolidinone-fluoroquinolone hybrids.
as §1

[6] = tested on: S. pneumoniae (13) clinical isolates; assay: Susceptibility of clinical isolates (MIC); type: cell-based, Streptococcus pneumoniae; settings: Streptococcus pneumoniae, S. pneumoniae, 13 clinical isolates
Description: as §1

[7] = tested on: E. faecium (47) clinical isolates; assay: Susceptibility of clinical isolates (MIC); type: cell-based, Enterococcus faecium; settings: Enterococcus faecium, E. faecium, 47 clinical isolates
Description: as §1

[8] = tested on: S. suis (9) clinical isolates; assay: Susceptibility of clinical isolates (MIC); type: cell-based, Streptococcus suis; settings: Streptococcus suis, S. suis, 9 clinical isolates
Description: as §1

[9] = tested on: CIP-resistant S. aureus; assay: MIC against drug-resistant strain; type: cell-based; settings: Staphylococcus aureus; S. aureus, CIP-resistant; read-out: MIC
Description: as §2, §1

[10] = tested on: MRSA; assay: MIC against drug-resistant strain; type: cell-based; settings: Staphylococcus aureus, read-out: MIC
Description: as §2, §1

[11] = tested on: VAN and quinolone-resistant E. faecium; assay: MIC against drug-resistant strain; type: cell-based; settings: Enterococcus faecium; E. faecium, VAN and quinolone-resistant; read-out: MIC
Description: as §2, §1

[12] = tested on: LZD and quinolone-resistant E. faecium; assay: MIC against drug-resistant strain; type: cell-based; settings: Enterococcus faecium; E. faecium, LZD and quinolone-resistant; read-out: MIC
Description: as §2, §1

[13] = tested on: CIP-resistant S. haemolyticus; assay: MIC against drug-resistant strain; type: cell-based; settings: Staphylococcus haemolyticus; S. haemolyticus, CIP-resistant; read-out: MIC
Description: as §2, §1

[14] = tested on: VAN and quinolone-resistant S. pneumoniae; assay: MIC against drug-resistant strain; type: cell-based; settings: Streptococcus pneumoniae; S. pneumoniae, VAN and quinolone-resistant; read-out: MIC
Description: as §2, §1

[15] = tested on: LZD-resistant E. faecalis; assay: microbe, parasite or virus in culture; type: cell-based; settings: Enterococcus faecalis
Description: as §2, §1

[16] = tested on: S. aureus (46) clinical isolates; assay: Susceptibility of clinical isolates (MIC); type: cell-based, Staphylococcus aureus; settings: Staphylococcus aureus, S. aureus, 46 clinical isolates
Description: as §1

[17] = tested on: H. influenzae (ATCC49247); assay: MIC, broth microdilution (CLSI), standard strain; type: cell-based; settings: Haemophilus influenzae
Source text: (§3) 6 standard strains and 3 clinical isolates were used to the preliminary evaluation of in vitro antibacterial activities of oxazolidinone-fluoroquinolone hybrids. For the further evaluation of hybrids OBP-4 and OBP-5, 263 clinical isolates including S. aureus (46), S. haemolyticus(32), S. epidermidis (10), E. faecalis (72), E. faecium (47), S. pneumoniae (13), H. parasuis (34), S. suis (9), and 8 resistant strains including MRSA, MRSE, CIP-resistant S. aureus and S. haemolyticus, VAN and quinolone-resistant S. pneumoniae, LZD-resistant E. faecalis, LZD/VAN and quinolone-resistant E. faecium were collected and tested.
(§4) Susceptibility testing of oxazolidinone-fluoroquinolone hybrids against various bacteria was performed by the broth microdilution method as outlined by the Clinical and Laboratory Standards Institute (CLSI). Three types of media, including cation-adjusted Mueller Hinton broth, Haemophilus Test Medium and cation-adjusted Mueller Hinton broth that contained 3%–5% lysed horse blood, were used to culture the corresponding bacteria. All compounds including comparator drugs were dissolved in an appropriate solvent at a concentration of 2.048 mg/mL and then serially diluted two-fold to provide the required concentrations. A final inoculum of 5 × 10^5 CFU/mL was used and plates were read after incubation for 16–24 h at 35 °C. […] Standard quality control strains (ATCC) were included throughout. Each determination was repeated in triplicate.

[18] = tested on: S. aureus (ATCC29213); assay: MIC, broth microdilution (CLSI), standard strain; type: cell-based; settings: Staphylococcus aureus
Source text: as §3, §4

[19] = tested on: S. pneumoniae (ATCC49619); assay: MIC, broth microdilution (CLSI), standard strain; type: cell-based; settings: Streptococcus pneumoniae
Source text: as §3, §4

[20] = tested on: P. Aeruginosa (ATCC27853); assay: MIC, broth microdilution (CLSI), standard strain; type: cell-based; settings: Pseudomonas aeruginosa; P. Aeruginosa (ATCC27853); read-out: MIC
Source text: as §3, §4

[21] = tested on: E. faecalis (ATCC29212); assay: MIC, broth microdilution (CLSI), standard strain; type: cell-based; settings: Enterococcus faecalis; E. faecalis (ATCC29212); read-out: MIC
Source text: as §3, §4

[22] = tested on: E. coli (ATCC25922); assay: MIC, broth microdilution (CLSI), standard strain; type: cell-based; settings: Escherichia coli; E. coli (ATCC25922); read-out: MIC
Source text: as §3, §4

[23] = tested on: S. agalactiae^R (13B317), levofloxacin-resistant S. agalactiae; assay: MIC, broth microdilution (CLSI), clinical isolate; type: cell-based; settings: Streptococcus agalactiae; levofloxacin-resistant S. agalactiae (13B317)
Source text: as §3, §4

[24] = tested on: MRSA (13B262); assay: MIC, broth microdilution (CLSI), clinical isolate; type: cell-based; settings: Staphylococcus aureus
Source text: as §3, §4

[25] = tested on: VRE (13B330); assay: MIC, broth microdilution (CLSI), clinical isolate; type: cell-based, vancomycin-resistant enterococcus; settings: Enterococcus
Source text: as §3, §4

Compound: CCN1CCN(c2cc3c(cc2F)c(=O)c(C(=O)O)cn3C2CC2)CC1 [ENR, enrofloxacin]
MIC50 ([1]; Glaesserella parasuis, read-out: MIC50): ≤ 0.0625 µg/mL
MIC90 ([1]; Glaesserella parasuis, read-out: MIC90): 1 µg/mL (≈ 2.78 µM)
MIC Range [1]: ≤0.0625 to 1 µg/mL
MIC50 ([2]; read-out: MIC50): 2 µg/mL (≈ 5.56 µM)
MIC90 ([2]; read-out: MIC90): 4 µg/mL (≈ 11.1 µM)
MIC ([2]; read-out: MIC Range): 0.125 to 4 µg/mL (≈ 0.348 to 11.1 µM)
MIC50 ([3]; read-out: MIC50): ≤ 0.0625 µg/mL
MIC90 ([3]; read-out: MIC90): 0.5 µg/mL (≈ 1.39 µM)
MIC ([3]; read-out: MIC Range): 0.0625 to 8 µg/mL (≈ 0.174 to 22.3 µM)
MIC Range [4]: ≤0.0625 to 2 µg/mL
MIC50 ([4]; Enterococcus faecalis): 0.5 µg/mL (≈ 1.39 µM)
MIC90 ([4]; Enterococcus faecalis): 0.5 µg/mL (≈ 1.39 µM)
MIC [5]: ≤ 0.0625 µg/mL
MIC50 ([6]; read-out: MIC50): 32 µg/mL (≈ 89 µM)
MIC90 ([6]; read-out: MIC90): > 32 µg/mL
MIC50 ([7]; read-out: MIC50): 2 µg/mL (≈ 5.56 µM)
MIC90 ([7]; read-out: MIC90): 32 µg/mL (≈ 89 µM)
MIC50 ([8]; read-out: MIC50): 0.25 µg/mL (≈ 0.696 µM)
MIC90 ([8]; read-out: MIC90): 4 µg/mL (≈ 11.1 µM)
MIC ([8]; read-out: MIC Range): 0.0625 to 8 µg/mL (≈ 0.174 to 22.3 µM)
MIC [9]: 2 µg/mL (≈ 5.56 µM)
MIC [10]: 0.25 µg/mL (≈ 0.696 µM)
MIC [11]: > 32 µg/mL
MIC [12]: > 32 µg/mL
MIC [13]: 8 µg/mL (≈ 22.3 µM)
MIC [14]: > 32 µg/mL
MIC [15]: 1 µg/mL (≈ 2.78 µM)
MIC50 ([16]; read-out: MIC50): 2 µg/mL (≈ 5.56 µM)
MIC90 ([16]; read-out: MIC90): 4 µg/mL (≈ 11.1 µM)
MIC ([16]; read-out: MIC Range): 0.0625 to 8 µg/mL (≈ 0.174 to 22.3 µM)

MIC [17]: 1 µg/mL (≈ 1.71 µM)
MIC [18]: 0.5 µg/mL (≈ 0.854 µM)
MIC [19]: 0.062 µg/mL (≈ 0.106 µM)
MIC [20]: 64 µg/mL (≈ 109 µM)
MIC [21]: 0.5 µg/mL (≈ 0.854 µM)
MIC [22]: 8 µg/mL (≈ 13.7 µM)
MIC [23]: 0.125 µg/mL (≈ 0.213 µM)
MIC [24]: 0.5 µg/mL (≈ 0.854 µM)
MIC [25]: 0.25 µg/mL (≈ 0.427 µM)
Compound: O=C(O)c1cn(C2CC2)c2cc(N3CCC(O)(COc4ccc(N5C[C@H](CO)OC5=O)cc4F)CC3)c(F)cc2c1=O [CZD, cadazolid, reference compound]
